Converted amounts (≈) assume the structure as drawn.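 Five concentrations, 48 hours, 96-well plates. GI50 = concentration required for 50% inhibition of growth. Definition used: TGI = concentration required for complete inhibition of growth.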 The source made the active and inactive calls. Cut-off read from the data, not from the text of the source: active = GI50 below about 0.43 µM; inactive = the rest.
Key:
Assay in all cases: NCI tumour cell line growth inhibition, 48 h
[1] = system: OVCAR-8 ovarian
[2] = system: SNB-75 CNS
[3] = system: MCF7 breast
[4] = system: SW-620 colon
[5] = system: NCI-H460 lung
[6] = system: SK-OV-3 ovarian
[7] = system: UO-31 renal
[8] = system: SF-268 CNS
[9] = system: NCI-H23 lung
[10] = system: SN12K1 renal
[11] = system: SF-539 CNS
[12] = system: CAKI-1 renal
[13] = system: A549 NSCLC
[14] = system: P388/ADR leukemia
[15] = system: MOLT-4 leukemia
[16] = system: A498 renal
[17] = system: UACC-62 melanoma
[18] = system: HOP-18 NSCLC
[19] = system: SNB-78 CNS
[20] = system: K-562 leukemia
[21] = system: NCI/ADR-RES ovarian
[22] = system: COLO 205 colon
[23] = system: RXF 393 renal
[24] = system: IGROV1 ovarian
[25] = system: CCRF-CEM leukemia
[26] = system: DLD-1 colon
[27] = system: SK-MEL-28 melanoma
[28] = system: DMS 273 small cell lung
[29] = system: OVCAR-3 ovarian
[30] = system: XF 498 CNS
[31] = system: SF-295 CNS
[32] = system: RPMI-8226 leukemia
[33] = system: HT29 colon
[34] = system: HCT-15 colon
[35] = system: SK-MEL-2 melanoma
[36] = system: HCT-116 colon
[37] = system: DMS 114 small cell lung
[38] = system: MALME-3M melanoma
[39] = system: NCI-H522 lung
[40] = system: HOP-62 NSCLC
[41] = system: P388 leukemia
[42] = system: UACC-257 melanoma
[43] = system: SK-MEL-5 melanoma
[44] = system: EKVX NSCLC
[45] = system: HOP-92 NSCLC
[46] = system: OVCAR-5 ovarian
[47] = system: HL-60(TB) leukemia
[48] = system: KM12 colon
[49] = system: SN12C renal
[50] = system: OVCAR-4 ovarian
[51] = system: NCI-H226 lung
[52] = system: U251 CNS
[53] = system: HCC-2998 colon
[54] = system: M19-MEL melanoma
[55] = system: KM20L2 colon
[56] = system: SNB-19 CNS
[57] = system: LOX IMVI melanoma
[58] = system: SR leukemia
[59] = system: LXFL 529 NSCLC
[60] = system: 786-0 renal
[61] = system: RXF-631 renal
[62] = system: M14 melanoma
[63] = system: ACHN renal
[64] = system: TK-10 renal

In the case of `NC(N)=Nc1nc2ccccc2[nH]1`, the GI50 [1] is reported as 76.5 µg/mL (≈ 437 µM), the TGI [1] is reported as > 150 µg/mL and the GI50 [2] is reported as 150 µg/mL (≈ 856 µM). For the same compound, the TGI [2] was > 150 µg/mL, the GI50 [3] was 1.05 µg/mL (≈ 6.01 µM) and the TGI [3] was 79.4 µg/mL (≈ 453 µM). The GI50 [4] was 60.6 µg/mL (≈ 346 µM), the TGI [4] was > 150 µg/mL and the GI50 [5] was 36.5 µg/mL (≈ 209 µM). For the same compound, the TGI [5] was > 150 µg/mL, the GI50 [6] was 150 µg/mL (≈ 856 µM) and the TGI [6] was > 150 µg/mL. It also gave a GI50 [7] of 20 µg/mL (≈ 114 µM), a TGI [7] of 107 µg/mL and a GI50 [8] of 128 µg/mL (≈ 732 µM). For the same compound, the TGI [8] was > 150 µg/mL, the GI50 [9] was 121 µg/mL (≈ 691 µM) and the TGI [9] was > 150 µg/mL. The GI50 [10] was 37.6 µg/mL (≈ 215 µM), the TGI [10] was > 150 µg/mL and the GI50 [11] was 33.7 µg/mL (≈ 192 µM). For the same compound, the TGI [11] was > 150 µg/mL, the GI50 [12] was 48.8 µg/mL (≈ 279 µM) and the TGI [12] was > 150 µg/mL. The GI50 [13] was 61 µg/mL (≈ 348 µM), the TGI [13] was > 150 µg/mL and the GI50 [14] was 6.34 µg/mL (≈ 36.2 µM). It also gave a TGI [14] of 41.5 µg/mL (≈ 237 µM), a GI50 [15] of 5.03 µg/mL (≈ 28.7 µM) and a TGI [15] of 37.3 µg/mL. For the same compound, the GI50 [16] was 45.8 µg/mL (≈ 262 µM), the TGI [16] was > 150 µg/mL and the GI50 [17] was 36.2 µg/mL (≈ 207 µM). The TGI [17] was > 150 µg/mL, the outcome [18] was “inactive” and the GI50 [19] was 150 µg/mL (≈ 856 µM). The TGI [19] was > 150 µg/mL, the GI50 [20] was 27.6 µg/mL (≈ 157 µM) and the TGI [20] was > 150 µg/mL. For the same compound, the GI50 [21] was 6.44 µg/mL (≈ 36.8 µM), the TGI [21] was > 150 µg/mL and the GI50 [22] was 61.7 µg/mL (≈ 352 µM). For the same compound, the TGI [22] was > 150 µg/mL, the GI50 [23] was 72.5 µg/mL (≈ 414 µM) and the TGI [23] was > 150 µg/mL. For the same compound, the GI50 [24] was 23.7 µg/mL (≈ 135 µM), the TGI [24] was > 150 µg/mL and the GI50 [25] was 4.49 µg/mL (≈ 25.6 µM). The TGI [25] was 111 µg/mL, the GI50 [26] was 54.4 µg/mL (≈ 311 µM) and the TGI [26] was > 150 µg/mL. The GI50 [27] was 135 µg/mL (≈ 769 µM), the TGI [27] was > 150 µg/mL and the GI50 [28] was 46.4 µg/mL (≈ 265 µM). For the same compound, the TGI [28] was > 150 µg/mL, the GI50 [29] was 38.4 µg/mL (≈ 219 µM) and the TGI [29] was > 150 µg/mL. For the same compound, the outcome [30] was “inactive”, the GI50 [31] was 34.4 µg/mL (≈ 197 µM) and the TGI [31] was 111 µg/mL. For the same compound, the GI50 [32] was 2.98 µg/mL (≈ 17 µM), the TGI [32] was 29.7 µg/mL and the GI50 [33] was 51.3 µg/mL (≈ 293 µM). The TGI [33] was > 150 µg/mL, the GI50 [34] was 80.9 µg/mL (≈ 462 µM) and the TGI [34] was > 150 µg/mL. The GI50 [35] was 95 µg/mL (≈ 542 µM), the TGI [35] was > 150 µg/mL and the GI50 [36] was 49.3 µg/mL (≈ 282 µM). The TGI [36] was > 150 µg/mL, the GI50 [37] was 10.5 µg/mL (≈ 59.8 µM) and the TGI [37] was 68 µg/mL. For the same compound, the GI50 [38] was 47.4 µg/mL (≈ 271 µM), the TGI [38] was 47.4 µg/mL and the GI50 [39] was 5.66 µg/mL (≈ 32.3 µM). It also gave a TGI [39] of 46.5 µg/mL, a GI50 [40] of 43.4 µg/mL (≈ 248 µM) and a TGI [40] of 124 µg/mL. For the same compound, the GI50 [41] was 4.46 µg/mL (≈ 25.4 µM), the TGI [41] was 20.5 µg/mL (≈ 117 µM) and the GI50 [42] was 72.4 µg/mL (≈ 413 µM). For the same compound, the TGI [42] was > 150 µg/mL, the GI50 [43] was 31.1 µg/mL (≈ 178 µM) and the TGI [43] was 99 µg/mL. The GI50 [44] was 57.4 µg/mL (≈ 328 µM), the TGI [44] was > 150 µg/mL and the GI50 [45] was 103 µg/mL (≈ 588 µM). The TGI [45] was > 150 µg/mL, the GI50 [46] was 27.8 µg/mL (≈ 159 µM) and the TGI [46] was > 150 µg/mL. The GI50 [47] was 3.87 µg/mL (≈ 22.1 µM), the TGI [47] was 17.2 µg/mL and the GI50 [48] was 53.1 µg/mL (≈ 303 µM). For the same compound, the TGI [48] was > 150 µg/mL, the GI50 [49] was 72.9 µg/mL (≈ 416 µM) and the TGI [49] was > 150 µg/mL. The GI50 [50] was 22.1 µg/mL (≈ 126 µM), the TGI [50] was 55.5 µg/mL and the GI50 [51] was 55.3 µg/mL (≈ 315 µM). The TGI [51] was > 150 µg/mL, the GI50 [52] was 55.3 µg/mL (≈ 316 µM) and the TGI [52] was > 150 µg/mL. For the same compound, the GI50 [53] was 34.1 µg/mL (≈ 195 µM), the TGI [53] was > 150 µg/mL and the GI50 [54] was 20.3 µg/mL (≈ 116 µM). The TGI [54] was 51 µg/mL, the outcome [55] was “inactive” and the GI50 [56] was 137 µg/mL (≈ 782 µM). For the same compound, the TGI [56] was > 150 µg/mL, the GI50 [57] was 43.8 µg/mL (≈ 250 µM) and the TGI [57] was > 150 µg/mL.

With `Cc1cc(NCCCCCCNc2cc(C)nc3ccc(Cl)cc23)c2cc(Cl)ccc2n1` the TGI [1] was 39.1 µM, the TGI [2] was 35.5 µM and the TGI [5] was 29.8 µM. For the same compound, the TGI [58] was > 100 µM, the TGI [6] was > 100 µM and the TGI [7] was 62.2 µM. The TGI [8] was 32.5 µM, the TGI [9] was 30.7 µM and the TGI [11] was 29.4 µM. For the same compound, the TGI [12] was > 100 µM, the TGI [13] was 45.9 µM and the TGI [15] was > 100 µM. For the same compound, the TGI [16] was > 100 µM, the TGI [17] was 36 µM and the TGI [59] was > 100 µM. It also gave a TGI [19] of 56.8 µM, a TGI [20] of 18.4 µM and a TGI [22] of 32.3 µM. For the same compound, the TGI [23] was 30.6 µM, the TGI [60] was 32 µM and the TGI [25] was 83.6 µM. The TGI [26] was 30.8 µM, the TGI [27] was 32 µM and the TGI [28] was 42.1 µM. The TGI [29] was 32 µM, the TGI [30] was 32 µM and the TGI [31] was 31.2 µM. For the same compound, the TGI [32] was > 100 µM, the TGI [33] was 33.5 µM and the TGI [34] was 33.1 µM. For the same compound, the TGI [61] was > 100 µM, the TGI [62] was > 100 µM and the TGI [35] was 46 µM. The TGI [36] was 30.8 µM, the TGI [37] was 36 µM and the TGI [38] was 75.6 µM. The TGI [39] was 30.7 µM, the TGI [40] was > 100 µM and the TGI [63] was > 100 µM. For the same compound, the TGI [42] was 44.9 µM, the TGI [43] was 32.8 µM and the TGI [44] was 30.4 µM. It also gave a TGI [64] of 62.1 µM, a TGI [46] of 34.7 µM and a TGI [47] of 47.8 µM. It also gave a TGI [48] of 30.9 µM, a TGI [49] of 47.2 µM and a TGI [50] of 34.8 µM. The TGI [51] was > 100 µM, the TGI [52] was 30.6 µM and the TGI [53] was 30.3 µM. For the same compound, the TGI [54] was 43.4 µM, the TGI [55] was 32.4 µM and the TGI [56] was 66.8 µM. The TGI [57] was 28.7 µM.
